The values below are quoted from earlier work in article PMC10352257, “In vivo effects of the alpha-synuclein misfolding inhibitor minzasolmin supports clinical development in Parkinson’s disease” (NPJ Parkinson's Disease, 2023).

This data set deals with Line 61 transgenic mice. Also noted: method as in PMID 28585223. Conditions: cited from earlier work.

Consider CLR01, for which the “effect on gait deficits of Line 61 transgenic mice in round beam traversal test” value is “improved”.
